Source: ChEMBL document CHEMBL6103565, “Current strategies in design and synthesis of antifungals hybrid and chimeric diazine derivatives” (Bioorg Med Chem, 2025)
In brackets after ≈: the same amount, converted by molar mass.

Columns and labels:
Candida albicans [1] = test: Antifungal activity against Candida albicans ATCC 10231 assessed as inhibition of mycelial growth relative to control; type: functional
[2] = test system: Syncephalastrum racemosum; test: Antifungal activity against Syncephalastrum racemosum assessed as zone of inhibition; type: functional
Aspergillus fumigatus = test: Antifungal activity against Aspergillus fumigatus assessed as zone of inhibition; type: functional
Aspergillus flavus = test: Antimicrobial activity against Aspergillus flavus assessed as zone of inhibition; type: functional
Botryosphaeria dothidea = test: Antifungal activity against Botryosphaeria dothidea assessed as reduction in fungal growth at 50 ug/ml relative to control; type: functional
Botrytis cinerea = test: Antifungal activity against Botrytis cinerea assessed as reduction in fungal growth at 50 ug/ml relative to control; type: functional
Trichophyton rubrum = test: Antifungal activity against Trichophyton rubrum assessed as diameter of zone inhibition; type: functional
Candida tropicalis = test: Antifungal activity against Candida tropicalis assessed as zone of inhibition by disc diffusion method; type: functional
Aspergillus niger [3] = test: Antifungal activity against Aspergillus niger assessed as zone of inhibition by disc diffusion method; type: functional
Candida albicans [4] = test: Antifungal activity against azole-resistant Candida albicans ATCC 18804 assessed as fungal growth inhibition incubated for 24 hrs by CLSI protocol based broth microdilution method; type: functional
Cryptococcus neoformans = test: Antifungal activity against Cryptococcus neoformans assessed as reduction in fungal growth incubated for 24 hrs by broth microdilution method; type: functional
Candida albicans [5] = test: Antifungal activity against Candida albicans NRRL-Y477 assessed as zone of inhibition by disc diffusion method; type: functional
Candida albicans [6] = test: Antifungal activity against Candida albicans assessed as reduction in fungal growth incubated for 48 hrs by broth micro-dilution method; type: functional
Candida albicans [7] = test: Antifungal activity against Candida albicans MTCC 227 by disc diffusion method; type: functional, organism-based
Candida albicans [8] = test: Antifungal activity against Candida albicans ATCC 10231 assessed as zone of inhibition incubated for 24 hrs by disc diffusion method; type: functional
Candida albicans [9] = test: Antifungal activity against Candida albicans; type: functional
Geotrichum candidum = test: Antifungal activity against Geotrichum candidum; type: functional
Aspergillus niger [10] = test: Antifungal activity against Aspergillus niger MTCC 282 by disc diffusion method; type: functional, organism-based
Candida albicans [11] = test: Antimicrobial activity against Candida albicans ATCC 64124 assessed as reduction in microbial growth by CLSI protocol based micro-broth dilution method; type: functional

## O=C(Nc1ccccc1)c1nnn2c1[nH]c(=O)c1ccccc12
Candida albicans [1]
  inhibition (INH): 40%

## CCc1nnc2c(Nc3ccc(C4=NN(C(N)=O)C(c5ccc(Cl)cc5)C4)cc3)nc3ccccc3n12 (configuration not stated)
[2]
  inhibition zone (IZ): 21 mm
Aspergillus fumigatus
  inhibition zone (IZ): 22 mm

## Nc1nc(=S)[nH]c(N)c1C1=NC2=Nc3ccccc3C2=N1
Aspergillus flavus
  inhibition zone (IZ): 14 mm

## O=C(Nc1ccc(F)cc1)c1ccc(Oc2cc(C(F)(F)F)ncn2)cc1
Botryosphaeria dothidea
  inhibition at 50 µg/mL: 89.8%
Botrytis cinerea
  inhibition at 50 µg/mL: 90.3%

## Cc1c(-c2ccc(Br)cc2)nnc(O)c1Br
Trichophyton rubrum
  inhibition zone (IZ): 14 mm

## CCc1nnc2c(Nc3ccc(C(=O)/C=C/c4ccc(C)cc4)cc3)nc3ccccc3n12
[2]
  inhibition zone (IZ): 20 mm

## COc1ccc(C2C3C(C)=NN(c4ccccc4)C3N=C3SCCN32)cc1 (configuration not stated)
Candida tropicalis
  inhibition zone (IZ): 26 mm
Aspergillus niger [3]
  inhibition zone (IZ): 24 mm

## Cc1nc(Oc2ccc(C(=O)Nc3ccc(F)cc3)cc2)cc(C(F)(F)F)n1
Botryosphaeria dothidea
  inhibition at 50 µg/mL: 85.9%

## O=C1CNC(c2ccc(Cl)cc2)N1c1nc(-c2ccc(Cl)cc2)cc(-c2ccccn2)n1 (configuration not stated)
Aspergillus flavus
  inhibition zone (IZ): 10 mm

## CN(C)c1ccc(-c2cc(Br)c(O)nn2)cc1
Trichophyton rubrum
  inhibition zone (IZ): 15 mm

## O=c1ccc(=O)n(-c2nc(-c3cc4c(ccc5ccccc54)oc3=O)cs2)[nH]1
Candida albicans [4]
  MIC: 0.9 µg/mL (≈ 2.31 µM)

## Oc1nnc(-c2ccccc2Cl)cc1Br
Trichophyton rubrum
  inhibition zone (IZ): 14 mm

## NC(=S)NNC(=O)c1c[nH]c2ncnn2c1=O
Cryptococcus neoformans
  MIC: 25 µg/mL (≈ 98.7 µM)

## O=C(CSc1nc2sc3c(c2c(=O)n1-c1ccc(Cl)cc1)CCCC3)Nc1nc(-c2cccc(Br)c2)cs1
Candida albicans [5]
  inhibition zone (IZ): 18 mm

## Cc1ccc(S(=O)(=O)Nc2nc(/N=N/c3c(N)nn4c(-c5ccc([N+](=O)[O-])cc5)c(C#N)c(N)nc34)cs2)cc1
Candida albicans [6]
  MIC: 25 µg/mL (≈ 43.4 µM)

## C[C@@H]1C[C@@H]([C@H](O)CC2CC(=O)NC(=O)C2)C(=O)[C@@H](C)C1 [CYCLOHEXIMIDE]
Candida albicans [6]
  MIC: 3.12 µg/mL (≈ 11.1 µM)

## CC1=NN(c2ccccc2)C2N=C3SCCN3C(c3ccc(Cl)cc3)C12 (configuration not stated)
Candida tropicalis
  inhibition zone (IZ): 26 mm
Aspergillus niger [3]
  inhibition zone (IZ): 24 mm

## CCc1nnc2c(Nc3ccc(C4=NN(c5ccccc5)C(c5ccc(OC)cc5)C4)cc3)nc3ccccc3n12 (configuration not stated)
[2]
  inhibition zone (IZ): 21 mm

## COC(=O)Nc1nc2ccccc2[nH]1 [CARBENDAZIM]
Candida albicans [7]
  EC50: 0.21 µg/mL (≈ 1.1 µM)

## CCc1nnc2c(Nc3ccc(Br)cc3)nc3ccccc3n12
[2]
  inhibition zone (IZ): 20 mm

## Oc1nnc(-c2ccc(Cl)cc2)cc1Br
Trichophyton rubrum
  inhibition zone (IZ): 14 mm

## CCc1ccccc1/N=N/c1c(N)nn2c(-c3ccc(Cl)cc3)cc(-c3ccccc3)nc12
Candida albicans [8]
  inhibition zone (IZ): 19 mm

## Cc1ccc(S(=O)(=O)Nc2nc(/N=N/c3c(N)nn4c(C)cc(C)nc34)cs2)cc1
Candida albicans [6]
  MIC: 50 µg/mL (≈ 113 µM)

## O=c1ccc(=O)n(-c2nc(-c3ccc([N+](=O)[O-])cc3)cs2)[nH]1
Candida albicans [4]
  MIC: 3.9 µg/mL (≈ 12.3 µM)

## CCc1nnc2c(Nc3ccc(C4=NNC(c5ccc(Cl)cc5)C4)cc3)nc3ccccc3n12 (configuration not stated)
Aspergillus fumigatus
  inhibition zone (IZ): 22 mm

## CCOC(=O)Cc1nc2c3[se]c4nc5c(nc4c3ncn2n1)c(C)nn5-c1ccccc1
Candida albicans [9]
  MIC: 8 µg/mL (≈ 16.3 µM)
Geotrichum candidum
  MIC: 6 µg/mL (≈ 12.2 µM)

## CC(=O)N1N=C(C2=C(C)NC(=O)NC2c2ccc(F)cc2)OC1c1ccc(Cl)cc1 (configuration not stated)
Candida albicans [7]
  EC50: 0.2 µg/mL (≈ 0.466 µM)
Aspergillus niger [10]
  EC50: 0.2 µg/mL (≈ 0.466 µM)

## Nc1ncc(C2=NC3=Nc4ccccc4C3=N2)c(N)n1
Aspergillus flavus
  inhibition zone (IZ): 18 mm

## Cc1nc(-c2ccc(C(C)(C)C)cc2)sc1-c1ccnc(N[C@H]2CC[C@H](N)CC2)n1
Candida albicans [11]
  MIC: 4 µg/mL

## CCc1ccccc1/N=N/c1c(N)nc2c(/N=N/c3ccccc3CC)cnn2c1N
Candida albicans [8]
  inhibition zone (IZ): 21 mm

## Cc1nc(Oc2ccc(C(=O)Nc3ccc(Br)c(Cl)c3)cc2)cc(C(F)(F)F)n1
Botrytis cinerea
  inhibition at 50 µg/mL: 83.8%
